What was measured:
P-gp [1] = biological target: T1, P-gp (Homo sapiens, UniProt P08183); test: in vitro
[2] = dual perfusion of human placental lobule; cited from earlier work
P-gp [3] = biological target: T1, P-gp; type: biochemical
[4] = system: P-gp of CEM leukemia cells; settings: cited from earlier work
P-gp [5] = biological target: T1, P-gp; test: Inhibition of [3H]-paclitaxel uptake by placental inside-out vesicles
[6] = placental IOVs 0.05 mg/mL, 20–500 nM [3H] paclitaxel, n = 10, mean ± SEM

T1 sequence (P08183 whole entry, the tested form may be a part): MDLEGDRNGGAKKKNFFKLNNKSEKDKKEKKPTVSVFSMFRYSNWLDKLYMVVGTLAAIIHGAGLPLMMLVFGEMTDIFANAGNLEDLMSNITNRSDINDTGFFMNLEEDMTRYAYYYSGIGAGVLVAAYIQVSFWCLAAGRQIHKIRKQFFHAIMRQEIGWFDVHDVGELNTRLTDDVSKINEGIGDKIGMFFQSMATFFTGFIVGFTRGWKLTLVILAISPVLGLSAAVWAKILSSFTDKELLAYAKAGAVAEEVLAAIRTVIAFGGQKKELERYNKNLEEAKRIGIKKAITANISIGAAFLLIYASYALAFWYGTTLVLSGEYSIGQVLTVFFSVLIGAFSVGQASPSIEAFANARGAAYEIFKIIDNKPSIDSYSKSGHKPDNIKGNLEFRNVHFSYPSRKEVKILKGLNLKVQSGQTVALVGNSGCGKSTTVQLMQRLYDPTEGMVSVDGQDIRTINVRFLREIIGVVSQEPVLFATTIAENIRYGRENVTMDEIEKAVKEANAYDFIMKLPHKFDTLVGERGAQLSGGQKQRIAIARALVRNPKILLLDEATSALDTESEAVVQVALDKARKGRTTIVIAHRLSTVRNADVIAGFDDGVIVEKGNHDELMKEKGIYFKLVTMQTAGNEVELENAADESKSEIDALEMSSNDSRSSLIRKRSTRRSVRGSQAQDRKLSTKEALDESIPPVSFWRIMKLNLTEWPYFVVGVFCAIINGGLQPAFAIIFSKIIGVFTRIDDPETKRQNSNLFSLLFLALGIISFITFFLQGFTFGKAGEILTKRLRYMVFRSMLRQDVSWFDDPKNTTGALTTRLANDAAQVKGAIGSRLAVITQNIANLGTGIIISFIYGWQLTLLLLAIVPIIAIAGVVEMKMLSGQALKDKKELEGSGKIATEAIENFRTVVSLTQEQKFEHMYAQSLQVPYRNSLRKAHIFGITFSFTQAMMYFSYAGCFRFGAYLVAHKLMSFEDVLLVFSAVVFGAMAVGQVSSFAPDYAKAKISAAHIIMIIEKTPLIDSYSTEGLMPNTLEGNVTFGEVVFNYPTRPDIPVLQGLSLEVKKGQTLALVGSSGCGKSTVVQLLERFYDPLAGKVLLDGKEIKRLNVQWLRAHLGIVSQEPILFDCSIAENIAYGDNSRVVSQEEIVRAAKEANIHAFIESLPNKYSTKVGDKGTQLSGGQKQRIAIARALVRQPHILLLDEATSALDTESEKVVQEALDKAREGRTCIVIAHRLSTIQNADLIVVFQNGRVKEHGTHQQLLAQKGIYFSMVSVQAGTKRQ

## CCC(=O)C(CC(C)N(C)C)(c1ccccc1)c1ccccc1 (stereo not drawn) [methadone]
P-gp [1]
  inhibition at 1 min: 60%
[2]
  rate of transfer from the maternal to fetal circuit: 29.4 ± 4.6%

## CC(=O)O[C@H]1C(=O)[C@@]2(C)[C@H]([C@H](OC(=O)c3ccccc3)[C@]3(O)C[C@H](OC(=O)[C@H](O)[C@@H](NC(=O)c4ccccc4)c4ccccc4)C(C)=C1C3(C)C)[C@]1(OC(C)=O)CO[C@@H]1C[C@@H]2O [paclitaxel]
P-gp [3]; 200 individual placentas, mean
  ATP dependent uptake of [3H]-paclitaxel into IOVs, mean: 23 pmol*mg protein^−1min^−1
P-gp [3]; 200 individual placentas, range
  ATP dependent uptake of [3H]-paclitaxel into IOVs, range: 1–140 pmol*mg protein^−1min^−1
P-gp [3]; [6]
  Vmax of ATP-dependent [3H] paclitaxel uptake: 20 ± 3 pmol*mg protein^−1min^−1
  apparent Kt of ATP-dependent [3H] paclitaxel uptake: 66 ± 38 nM
[4]; cells passaged in vinblastine, multidrug resistant, overexpressing P-gp
  apparent Kt of paclitaxel transport, CEM cells overexpressing P-gp: 63 ± 46 nM
[4]; parental cells
  Kt of paclitaxel transport, parental CEM cells: 144 ± 56 nM

## COc1ccc(CCN(C)CCCC(C#N)(c2ccc(OC)c(OC)c2)C(C)C)cc1OC (stereo not drawn) [verapamil]
P-gp [5]
  inhibition at 1 min, 2 mM: 99 ± 9%

Source: paper PMC2748165 (Biochemical pharmacology, 2009)
